Reference: patent publication US6503490B2, “Deodorant products” (Unilever Home & Personal Care USA, division of Conopco, Inc., priority 2000, dated 2003)

Target: T1, human diferric transferrin (Homo sapiens, UniProt P02787)
T1 construct: purchased Sigma Chemicals
Assay: Transferrin dissociation promotion test (FerroZine, absorption at 562 nm)
Format: biochemical
Conditions: after 24 hours, 10 mmol.l^−1 test material, 37° C., pH 6.5, control 0.111
Method: 2.7 g.l^−1 human diferric transferrin (ex Sigma Chemicals) is incubated at 37° C. in 50 mM HEPES (N-[2-hydroxyethyl]piperazine-N-[2-ethanesulfonic acid]) buffer adjusted to pH 6.5 with sodium hydroxide, together with 0.115 g.l^−1 FerroZine (ex Sigma Chemicals; 3-(2-pyridyl)-5,6-bis(4-phenylsulfonic acid)-1,2,4-triazine, monosodium salt) and 10 mmol.l^−1 of the test material, if water soluble, or 2.5 g.l^−1 of the test material, added as a finely ground powder, if water insoluble.
After 24 hours, the extent of transferrin dissociation is estimated by eye or spectrophotometrically. Transferrin dissociation promoters lead a purple colouration; in particular, they lead to an absorption at 562 nm of 0.15 or greater. This purple colouration is the result of the production of iron(II) tri(FerroZine) complex. The molar concentration of this complex is equal to the molar concentration of iron dissociated from the transferrin.
2.7 g.l^−1 human diferric transferrin (ex Sigma Chemicals) was incubated at 37° C. in 50 mM HEPES (N-[2-hydroxyethyl]piperazine-N′-[2-ethanesulfonic acid]) buffer adjusted to pH 6.5 with sodium hydroxide, together with 0.115 g.l^−1 FerroZine (ex Sigma Chemicals; 3-(2-pyridyl)-5,6-bis(4-phenylsulfonic acid)-1,2,4-triazine, monosodium salt) and 10 mmol.l^−1 of the test material.
After 24 hours, the extent of transferrin dissociation was estimated spectrophotometrically by measuring absorption at 562 nm (vide supra). The data (see Table 5) illustrate the enhanced transferrin dissociation occurring in the presence of the indicated test materials.

T1 sequence (P02787 20-698): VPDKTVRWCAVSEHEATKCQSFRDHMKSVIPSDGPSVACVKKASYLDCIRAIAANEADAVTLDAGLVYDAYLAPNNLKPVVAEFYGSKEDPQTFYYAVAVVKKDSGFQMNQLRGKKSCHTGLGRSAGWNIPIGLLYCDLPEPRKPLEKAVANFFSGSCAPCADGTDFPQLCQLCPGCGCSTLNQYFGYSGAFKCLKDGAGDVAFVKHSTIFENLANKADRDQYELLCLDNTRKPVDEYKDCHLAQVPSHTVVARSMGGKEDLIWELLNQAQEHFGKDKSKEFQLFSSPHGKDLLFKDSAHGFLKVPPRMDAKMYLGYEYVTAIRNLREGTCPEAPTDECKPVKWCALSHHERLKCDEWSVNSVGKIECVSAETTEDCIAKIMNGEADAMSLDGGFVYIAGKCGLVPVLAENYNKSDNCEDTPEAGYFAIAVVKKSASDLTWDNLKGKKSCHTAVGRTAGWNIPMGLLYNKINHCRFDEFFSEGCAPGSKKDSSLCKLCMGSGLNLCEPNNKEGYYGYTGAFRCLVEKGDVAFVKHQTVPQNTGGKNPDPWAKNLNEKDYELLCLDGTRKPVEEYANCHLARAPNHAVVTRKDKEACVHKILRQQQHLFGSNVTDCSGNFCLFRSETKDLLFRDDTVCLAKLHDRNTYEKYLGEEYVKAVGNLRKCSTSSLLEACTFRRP

| Structure (SMILES) | Absorption |
| --- | --- |
| O=C(O)c1ccccc1O [Salicylic acid] | 0.305 |
| O=C(O)c1ccc(O)c(O)c1 [Protocatechuic acid] | 0.391 |
| O=S(=O)(O)c1cc(O)c(O)c(S(=O)(=O)O)c1 [Iron, 4,5-dihydroxy-1,3-benzenedisulfonic acid] | 0.425 |

System: Staphylococcus epidermidis
Assay: Anti-microbial performance test: growth inhibition of axillary isolate of S. epidermidis in semi-synthetic medium (OD 600 nm)
Format: cell-based
Conditions: concentration of 3×10^−6 mol.dm^−3 or less
Method: An axillary isolate of Staphylococcus epidermidis was grown overnight in 100 ml of tryptone soy broth (TSB, Oxoid Ltd). 10 ml of this culture was taken and subjected to centrifugation. The separated cells were re-suspended in 10 ml of phosphate buffered saline and the centrifugation procedure repeated. The washed cells were re-suspended in 10 ml of phosphate buffered saline to give the inoculum. 100 μl of the inoculum was added to 100 ml of semi-synthetic medium (SSM) containing (NH4)2SO4 (0.066 g),MgSO4.7H2O (0.012 g), KCl (0.1 g), KH2PO4 (0.27 g), Na2HPO4 (1.43 g), thiamin (0.1 mg), biotin (0.05 mg), Peptone P (0.05 g), and glucose (2.0 mmole) which had been previously sterilised by autoclaving at 121° C. for 20 minutes. The pH of the SSM was adjusted to 6.7 with HCl after sterilisation, prior to addition of the inoculum. This control medium was utilised in all of the in vitro inhibition studies. The chelator-containing test media were prepared in a similar manner, the chelator being introduced at a concentration of 3×10^−6 mol.dm^−3 before the pH adjustment with HCl.
100 μl of the S. epidermidis inoculum was introduced into the control medium and into test media containing the chelators indicated in Table 2. The cultures were inoculated at 37° C. (with agitation at 200 rpm) for 16 hours, and the optical density of the cultures measured at 600 nm to determine the extent of bacterial growth. By comparison of the optical density of the culture in the presence of chelating agent, to that of the control, the percentage inhibition of growth was established. (Optical density measurements were made on 1 in 4 dilutions of the cultures with 0.9% (w/v) saline, using 1 cm path length cuvettes, on a Pharmacia Biotech Ultrospec 200 Spectrophotometer.)

| Structure (SMILES) | Significant inhibition of growth of S. epidermidis (at least 30%) |
| --- | --- |
| O=C(O)CN(CCN(CC(=O)O)CC(=O)O)CC(=O)O [EDTA, ethylenediaminetetraacetic acid] | are not |
| O=C(O)CN(CC(=O)O)[C@@H]1CCCC[C@H]1N(CC(=O)O)CC(=O)O (relative stereo) [CDTA, trans-1,2-diaminocyclohexane-N,N,N′,N′-tetraacetic acid] | are not |
| O=C(O)CN(CCN(CC(=O)O)CC(=O)O)CCN(CC(=O)O)CC(=O)O [DTPA, diethylenetriaminepentaacetic acid] | capable of achieving significant inhibition |
| O=C(O)CN(CCN(CCN(CC(=O)O)CC(=O)O)CC(=O)O)CCN(CC(=O)O)CC(=O)O [TTHA, triethylenetetraaminehexaacetic acid] | capable of achieving significant inhibition |
